Assay results as given in patent publication US8158577B2, “Modulation of cartilage homeostasis by active domains of cell binding extracellular matrix molecules” (priority 2004, dated 2012).

What was measured:
[1] = system: K105 cells; test: Adhesion of K105 cells to chondroadherin in the presence of synthetic peptide (FIG. 3, 5A-5B, 13); assay type: cell-based, human; conditions: peptide 250 μg/ml
Description: Human cells (K9) originating from a human chondrosarcoma were a kind gift from Drs. Sven Inerot and Anders Lindahl, The Salgrenska University Hospital Gothenburg, Sweden. The K9 cells were cultured in Dulbeccos Modified Eagle Medium: Nutrient Mixture F12 (DMEM/F12 1:1) with GLUTAMAX I, supplemented with 10% fetal calf serum, 25 μg/ml ascorbic acid, 50 IU of penicillin and 50 μg/ml streptomycin (Life Technologies, Inc.). A different human cells line (K105) originating from a human chondrosarcoma was a kind gift from Dr. Sven Inerot, The Salgrenska University Hospital, Gothenburg, Sweden. The K105 cells were cultured in a mix of 40% Dulbeccos Modified Eagle Medium, 40% Minimum Essential Media (MEM) alpha Medium, 10% Nutrient Mixture F1 supplemented with 100 nM hydrocortisone, 100 ng/ml insulin, 10% fetal calf serum, 25 μg/ml ascorbic acid, 50 IU of penicillin and 50 μg/ml streptomycin (Life Technologies, Inc.). To harvest cells, culture dishes were rinsed three times with Ca^2+/Mg^2+-free PBS and the cells were incubated with 0.5% trypsin and 1 mM EDTA for 5 min. Detached cells were suspended in PBS containing 1 mg/ml trypsin inhibitor (Sigma) and then washed in PBS. To remove membrane-bound collagens the cells were treated with collagenase 100 U/ml (CLSPA; Worthington Biochemical Corp., Lakewood, N.J.) in PBS, 30 min. 37° C. and then washed in PBS.
(§1) Tissue culture 48-wells dishes (Nunclon, Nunc, Denmark) were coated overnight with 5 μg/ml chondroadherin in 4M Guanidine-HCl, 50 mM sodium acetate, pH 5.8, or for native protein in PBS. Alternatively coating was with 5 μg/ml collagen type II in PBS followed by after-coating with 0.5% BSA in PBS for 3 hours. Collagen type II was isolated from bovine nasal cartilage by pepsin digestion (11). Bacterially expressed chondroadherin was isolated as described above. Recombinant chondroadherin expressed in EBNA cell was cloned and purified as described elsewhere (8).
To test cell binding, the chondrosarcoma cells or bovine chondrocytes were suspended in PBS containing 0.1% BSA, 25 U/ml collagenase and added to the wells (50,000/well), in the absence or presence of various peptide pools or the synthetic peptides (200, 100, 50, 25, 12.5 μg/ml). Non-adherent cells were removed after 1 hour and adhesion was determined by measuring lysosomal N-acetylglucosaminidase (12). Adhesion and spreading was visualized by light microscopy. In the time studies, k105 cells were allowed to adhere for 30 minutes, unbound cells were removed and medium without serum supplemented with or without peptides (250 μg/ml), β1 integrin antibody (clone P4C10, Gibco BRL), EDTA (5 mM) was added. Cell morphology was visualized by light microscopy after 1, 3 and 20 hours.
Study design: Tissue culture dishes (48-wells) were coated with 5 μg/ml chondroadherin expressed in E. coli and blocked for non-specific binding with BSA. […] were suspended in PBS containing 0.1% BSA, 25 U/ml collagenase and added to the wells (50,000/well) in the presence of synthetic peptide to be tested and allowed to adhere for 1 hour at 37° C. Nonadherent cells were removed by washing, and adhesion was determined by analyzing lysosomal hexosaminidase.
A 12-mer peptide (1947.01) plus an N-terminal cysteine (CQLRGLRRWLEAK) (SEQ ID NO. 3) representing the candidate sequence identified by mass spectrometry were synthesized and its ability to inhibit cell adhesion was determined. Tissue culture dishes were coated with 5 μg/ml chondroadherin expressed in E. coli and blocked for non-specific binding with BSA. The cells were suspended in PBS containing 0.1% BSA, 25 U/ml collagenase and added to the wells (50,000/well) in the presence of synthetic peptide (200, 100, 50, 25, 12.5 μg/ml) and allowed to adhere for 1 hour at 37° C. Nonadherent cells were removed by washing, and adhesion was determined by analyzing lysosomal hexosaminidase. […]

[2] = system: K105 cells; test: Adhesion of K105 cells to collagen type II in the presence of synthetic peptide (FIG. 5C-5D); assay type: cell-based, human; conditions: peptide 250 μg/ml, 1 hour at 37° C.
Description: as §1
(§2) To test cell binding, the chondrosarcoma cells or bovine chondrocytes were suspended in PBS containing 0.1% BSA, 25 U/ml collagenase and added to the wells (50,000/well), in the absence or presence of various peptide pools or the synthetic peptides (200, 100, 50, 25, 12.5 μg/ml). Non-adherent cells were removed after 1 hour and adhesion was determined by measuring lysosomal N-acetylglucosaminidase (12). Adhesion and spreading was visualized by light microscopy. […]
Tissue culture dishes were coated with 5 μg/ml chondroadherin expressed in E. coli or collagen type II and blocked for non-specific binding with BSA. […] Spreading was visualized by light microscopy, and adhesion was determined by analyzing lysosomal hexosaminidase. Adhesion is expressed as number of cells where the data represent the average of two wells. […]

[3] = system: bovine chondrocytes; test: Adhesion of bovine chondrocytes to human chondroadherin with or without cell binding peptides (FIG. 6); assay type: cell-based; conditions: peptide 250 μg/ml, 1 hour at 37° C., 100,000 cells/well
Description: Bovine chondrocytes were isolated by collagenase (CLS1; Worthington Biochemical Corp., Lakewood, N.J.) digestion of articular cartilage from 4-6 month old calves as described (10). Briefly, cartilage slices were digested for 16 hours with collagenase in EBSS (Earle's balanced salt solution, GIBCO BRL Gaithersburg, Md.). The cells were filtered through a 100 μm nylon filter, washed three times in PBS containing 0.2% BSA (SERVA).
as §2
Tissue culture dishes were coated with 5 μg/ml chondroadherin expressed in E. coli or collagen type II and blocked for non-specific binding with BSA. […] Adhesion was determined by analyzing lysosomal hexosaminidase. Adhesion is expressed as number of cells, 100,000 cells/well was seeded. […]

H-CKFPTKRSKKAGRH-OH [SEQ ID No. 7]
k105 cell adhesion to chondroadherin in the presence of peptide ([1]; 1 hour at 37° C.): increased | k105 cell spreading on chondroadherin in the presence of peptide ([1]; 1 hour, light microscopy): increased | k105 cell adhesion to collagen type II in the presence of peptide [2]: not significantly affected | bovine chondrocyte adhesion to chondroadherin in the presence of peptide [3]: increased
